We go through eight compounds from PMC10682951, “Structure-function and rational design of a spider toxin Ssp1a at human voltage-gated sodium channel subtypes” (Frontiers in Pharmacology, 2023).

A word on the IC50: it is the concentration that gives 50% inhibition.

Holding throughout (assay type): cell-based
In one assay the target is T1, hNaV1.3 (Homo sapiens, UniProt Q9NY46).
T1 construct: host or cells: HEK293
As to the kind of experiment: Automated whole-cell patch-clamp (QPatch 16X), hNaV1.3. To be noted: HEK293 cells expressing hNaV1.3 + β1 subunit; QPatch 16X; holding −80 mV, step to 0 mV; peptide incubated 2 min; 0.1% BSA; mean, SEM and n (3-12). In short, it runs like this: (§1)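 HEK293 cells stably expressing the channel (human subtypes with β1 subunit), held at −80 mV; 2 min peptide pre-incubation, then 20 ms steps to 0 mV after a 200 ms −120 mV conditioning pulse. Extracellular pH 7.3 with 20 mM TEA-Cl, CsF-based pipette solution, 0.1% BSA; IC50 from four-parameter Hill fit.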
A general note: Patch clamp records ionic current or voltage across a cell membrane.

In the next assay the target is T2, hNaV1.7 (Homo sapiens, UniProt Q15858).
T2 construct: host or cells: HEK293
Briefly: Automated whole-cell patch-clamp (QPatch 16X), hNaV1.7. As to conditions: HEK293 cells expressing hNaV1.7 + β1 subunit; QPatch 16X; holding −80 mV, step to 0 mV; peptide incubated 2 min; 0.1% BSA; mean, SEM and n (3-9). The method in brief:
as §1

The target in the next assay is T3, hNaV1.2 (Homo sapiens, UniProt Q99250).
T3 construct: host or cells: HEK293
T3 sequence (Q07699 19-218): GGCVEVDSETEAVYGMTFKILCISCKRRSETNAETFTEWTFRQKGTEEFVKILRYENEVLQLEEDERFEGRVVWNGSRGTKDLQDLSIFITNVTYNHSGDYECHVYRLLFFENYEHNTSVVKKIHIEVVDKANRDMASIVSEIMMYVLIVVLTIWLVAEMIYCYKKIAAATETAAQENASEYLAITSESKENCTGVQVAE
T3 sequence (Q99250 whole entry): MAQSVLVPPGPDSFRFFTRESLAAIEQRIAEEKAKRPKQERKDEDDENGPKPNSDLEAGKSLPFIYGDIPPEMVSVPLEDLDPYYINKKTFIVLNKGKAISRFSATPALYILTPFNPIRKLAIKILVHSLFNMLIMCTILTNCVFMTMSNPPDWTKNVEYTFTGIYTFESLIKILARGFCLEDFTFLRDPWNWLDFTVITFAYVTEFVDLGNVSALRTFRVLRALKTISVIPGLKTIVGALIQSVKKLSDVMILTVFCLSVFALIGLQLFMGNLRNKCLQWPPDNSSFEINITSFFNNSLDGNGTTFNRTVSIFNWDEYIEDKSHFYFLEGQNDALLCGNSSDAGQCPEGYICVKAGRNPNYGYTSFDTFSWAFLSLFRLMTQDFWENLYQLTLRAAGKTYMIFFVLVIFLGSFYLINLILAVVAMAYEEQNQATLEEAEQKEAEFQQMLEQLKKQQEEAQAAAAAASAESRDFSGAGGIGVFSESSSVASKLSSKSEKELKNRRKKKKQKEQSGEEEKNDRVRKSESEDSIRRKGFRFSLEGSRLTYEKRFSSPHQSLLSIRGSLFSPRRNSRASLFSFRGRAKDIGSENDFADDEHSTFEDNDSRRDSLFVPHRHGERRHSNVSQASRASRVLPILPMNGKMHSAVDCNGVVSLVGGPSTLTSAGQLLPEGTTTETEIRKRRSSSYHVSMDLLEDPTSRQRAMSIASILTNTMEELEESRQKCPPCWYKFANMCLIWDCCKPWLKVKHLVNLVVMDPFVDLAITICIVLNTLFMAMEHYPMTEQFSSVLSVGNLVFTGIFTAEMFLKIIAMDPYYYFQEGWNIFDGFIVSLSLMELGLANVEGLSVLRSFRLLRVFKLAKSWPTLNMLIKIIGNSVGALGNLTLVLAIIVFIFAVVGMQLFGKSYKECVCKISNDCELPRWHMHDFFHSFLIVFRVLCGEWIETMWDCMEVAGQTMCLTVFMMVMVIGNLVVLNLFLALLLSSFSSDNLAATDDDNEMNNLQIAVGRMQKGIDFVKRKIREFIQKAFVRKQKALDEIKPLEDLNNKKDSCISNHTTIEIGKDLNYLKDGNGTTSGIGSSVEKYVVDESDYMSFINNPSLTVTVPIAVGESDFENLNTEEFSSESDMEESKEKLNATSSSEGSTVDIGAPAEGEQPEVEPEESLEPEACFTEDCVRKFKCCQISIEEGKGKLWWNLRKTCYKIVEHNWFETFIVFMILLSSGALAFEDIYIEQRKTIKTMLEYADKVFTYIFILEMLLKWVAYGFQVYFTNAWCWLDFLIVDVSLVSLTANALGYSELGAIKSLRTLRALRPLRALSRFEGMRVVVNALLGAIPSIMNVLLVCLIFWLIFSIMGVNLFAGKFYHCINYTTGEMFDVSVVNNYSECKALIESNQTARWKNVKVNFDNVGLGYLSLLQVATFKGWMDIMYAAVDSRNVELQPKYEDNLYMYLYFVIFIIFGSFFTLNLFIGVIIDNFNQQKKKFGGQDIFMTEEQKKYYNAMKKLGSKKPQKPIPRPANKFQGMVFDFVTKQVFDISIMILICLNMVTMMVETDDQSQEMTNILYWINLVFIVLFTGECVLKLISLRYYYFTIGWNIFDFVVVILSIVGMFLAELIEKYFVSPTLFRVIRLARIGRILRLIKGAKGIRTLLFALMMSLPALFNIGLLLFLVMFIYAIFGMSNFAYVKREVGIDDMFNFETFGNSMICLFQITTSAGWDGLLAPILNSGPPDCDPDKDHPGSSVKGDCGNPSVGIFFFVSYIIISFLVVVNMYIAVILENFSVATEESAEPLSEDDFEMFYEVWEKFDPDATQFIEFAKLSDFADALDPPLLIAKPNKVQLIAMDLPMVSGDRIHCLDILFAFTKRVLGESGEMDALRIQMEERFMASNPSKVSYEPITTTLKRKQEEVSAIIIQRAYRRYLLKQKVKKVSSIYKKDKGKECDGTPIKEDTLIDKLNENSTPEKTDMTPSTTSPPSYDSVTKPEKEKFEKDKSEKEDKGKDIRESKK
Briefly: Automated whole-cell patch-clamp (QPatch 16X), hNaV1.2. To be noted: HEK293 cells expressing hNaV1.2 + β1 subunit; QPatch 16X; holding −80 mV, step to 0 mV; peptide incubated 2 min; 0.1% BSA; mean, SEM and n (2-7). The method in brief:
as §1

T1 sequence (Q9NY46 whole entry): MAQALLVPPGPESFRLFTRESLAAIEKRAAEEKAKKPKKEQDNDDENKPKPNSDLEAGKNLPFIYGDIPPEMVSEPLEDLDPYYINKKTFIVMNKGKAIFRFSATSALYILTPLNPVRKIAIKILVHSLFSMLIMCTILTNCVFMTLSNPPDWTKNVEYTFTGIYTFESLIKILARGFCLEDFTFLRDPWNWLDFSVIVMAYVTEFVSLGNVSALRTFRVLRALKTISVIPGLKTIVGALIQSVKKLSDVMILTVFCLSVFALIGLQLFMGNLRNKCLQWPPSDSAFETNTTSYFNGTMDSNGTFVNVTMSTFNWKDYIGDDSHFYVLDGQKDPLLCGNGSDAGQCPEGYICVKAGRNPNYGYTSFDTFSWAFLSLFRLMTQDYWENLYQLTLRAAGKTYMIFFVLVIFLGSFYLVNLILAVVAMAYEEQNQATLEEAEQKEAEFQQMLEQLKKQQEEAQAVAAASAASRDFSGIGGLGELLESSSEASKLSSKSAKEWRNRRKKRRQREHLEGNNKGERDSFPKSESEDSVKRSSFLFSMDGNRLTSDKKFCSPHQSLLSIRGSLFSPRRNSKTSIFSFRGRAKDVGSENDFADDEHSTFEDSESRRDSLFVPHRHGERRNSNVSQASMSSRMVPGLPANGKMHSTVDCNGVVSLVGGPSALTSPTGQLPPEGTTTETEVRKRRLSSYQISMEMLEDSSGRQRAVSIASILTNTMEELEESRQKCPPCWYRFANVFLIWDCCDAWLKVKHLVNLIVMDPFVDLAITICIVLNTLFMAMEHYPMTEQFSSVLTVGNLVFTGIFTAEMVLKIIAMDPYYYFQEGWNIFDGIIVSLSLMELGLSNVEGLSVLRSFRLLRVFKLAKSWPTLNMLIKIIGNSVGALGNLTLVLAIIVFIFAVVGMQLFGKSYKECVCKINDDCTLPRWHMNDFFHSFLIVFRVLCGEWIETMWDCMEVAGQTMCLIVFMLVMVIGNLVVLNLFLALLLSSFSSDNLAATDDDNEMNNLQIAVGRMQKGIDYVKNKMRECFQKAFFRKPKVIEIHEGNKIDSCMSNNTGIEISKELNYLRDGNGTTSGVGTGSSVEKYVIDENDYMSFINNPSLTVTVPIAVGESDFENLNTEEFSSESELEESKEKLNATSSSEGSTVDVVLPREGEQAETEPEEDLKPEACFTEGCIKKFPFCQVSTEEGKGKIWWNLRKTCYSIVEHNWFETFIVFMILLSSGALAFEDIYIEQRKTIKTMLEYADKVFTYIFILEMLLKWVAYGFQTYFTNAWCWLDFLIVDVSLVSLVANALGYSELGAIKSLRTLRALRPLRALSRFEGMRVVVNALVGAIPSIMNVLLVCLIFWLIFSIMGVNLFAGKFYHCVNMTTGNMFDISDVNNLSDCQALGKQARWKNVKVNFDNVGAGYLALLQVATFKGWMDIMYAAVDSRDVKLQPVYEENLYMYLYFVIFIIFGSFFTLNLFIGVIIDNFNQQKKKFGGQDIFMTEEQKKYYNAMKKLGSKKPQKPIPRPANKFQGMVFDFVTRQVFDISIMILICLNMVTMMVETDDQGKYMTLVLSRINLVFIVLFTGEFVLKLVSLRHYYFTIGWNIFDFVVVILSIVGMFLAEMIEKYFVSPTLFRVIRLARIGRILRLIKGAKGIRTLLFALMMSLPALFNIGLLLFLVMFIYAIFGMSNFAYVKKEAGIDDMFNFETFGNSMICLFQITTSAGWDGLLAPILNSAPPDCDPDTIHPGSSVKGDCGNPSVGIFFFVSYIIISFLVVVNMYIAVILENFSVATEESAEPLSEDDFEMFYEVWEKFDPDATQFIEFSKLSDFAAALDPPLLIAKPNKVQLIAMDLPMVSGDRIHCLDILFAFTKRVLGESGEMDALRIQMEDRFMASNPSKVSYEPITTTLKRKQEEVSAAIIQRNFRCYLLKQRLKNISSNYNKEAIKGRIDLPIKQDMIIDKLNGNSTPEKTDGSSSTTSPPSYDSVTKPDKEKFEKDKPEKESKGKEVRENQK
T1 sequence (Q07699 19-218, further chain): as the sequence (Q07699 19-218) above

Turning to `CC(C)C[C@H](NC(=O)[C@H](CC(=O)O)NC(=O)[C@@H](NC(=O)[C@H](CCCNC(=N)N)NC(=O)[C@@H]1CSSC[C@@H]2NC(=O)[C@H](CCCCN)NC(=O)[C@H](CC(N)=O)NC(=O)[C@H](CC(N)=O)NC(=O)[C@H](CC(N)=O)NC(=O)[C@@H]3CCCN3C(=O)[C@H](CC(=O)O)NC(=O)[C@@H]3CSSC[C@H](NC(=O)[C@H](C(C)C)NC(=O)[C@H](Cc4ccc(O)cc4)NC(=O)CNC(=O)[C@H](CCC(=O)O)NC(=O)[C@H](CSSC[C@H](NC(=O)[C@H](CC(=O)O)NC(=O)CN)C(=O)N[C@@H](CC(C)C)C(=O)NCC(=O)N[C@@H](Cc4c[nH]c5ccccc45)C(=O)N[C@@H](Cc4ccccc4)C(=O)N[C@@H](CO)C(=O)NCC(=O)N3)NC2=O)C(=O)N[C@@H](Cc2c[nH]cn2)C(=O)N[C@@H](Cc2c[nH]c3ccccc23)C(=O)N[C@@H](CCCCN)C(=O)N[C@@H](Cc2ccc(O)cc2)C(=O)N2CCC[C@H]2C(=O)N[C@@H](Cc2c[nH]c3ccccc23)C(=O)N1)[C@@H](C)O)C(=O)O` [Y31T], the IC50 on hNaV1.3 is above 3000 nM; on hNaV1.7, 545 nM; at hNaV1.2, 874 nM.
For `CC(C)C[C@H](NC(=O)[C@H](CC(=O)O)NC(=O)[C@H](C)NC(=O)[C@H](CCCNC(=N)N)NC(=O)[C@@H]1CSSC[C@@H]2NC(=O)[C@H](CCCCN)NC(=O)[C@H](CC(N)=O)NC(=O)[C@H](CC(N)=O)NC(=O)[C@H](CC(N)=O)NC(=O)[C@@H]3CCCN3C(=O)[C@H](CC(=O)O)NC(=O)[C@@H]3CSSC[C@H](NC(=O)[C@H](C(C)C)NC(=O)[C@H](Cc4ccc(O)cc4)NC(=O)CNC(=O)[C@H](CCC(=O)O)NC(=O)[C@H](CSSC[C@H](NC(=O)[C@H](CC(=O)O)NC(=O)CN)C(=O)N[C@@H](CC(C)C)C(=O)NCC(=O)N[C@@H](Cc4c[nH]c5ccccc45)C(=O)N[C@@H](Cc4ccccc4)C(=O)N[C@@H](CO)C(=O)NCC(=O)N3)NC2=O)C(=O)N[C@@H](Cc2c[nH]cn2)C(=O)N[C@@H](Cc2c[nH]c3ccccc23)C(=O)N[C@@H](CCCCN)C(=O)N[C@@H](Cc2ccc(O)cc2)C(=O)N2CCC[C@H]2C(=O)N[C@@H](Cc2c[nH]c3ccccc23)C(=O)N1)C(=O)O` [Y31A], the IC50 is above 1000 nM at hNaV1.3, 254 nM on hNaV1.7 and 633 nM on hNaV1.2.
As for `CC(C)C[C@H](NC(=O)[C@H](C)NC(=O)[C@H](Cc1ccc(O)cc1)NC(=O)[C@H](CCCNC(=N)N)NC(=O)[C@@H]1CSSC[C@@H]2NC(=O)[C@H](CCCCN)NC(=O)[C@H](CC(N)=O)NC(=O)[C@H](CC(N)=O)NC(=O)[C@H](CC(N)=O)NC(=O)[C@@H]3CCCN3C(=O)[C@H](CC(=O)O)NC(=O)[C@@H]3CSSC[C@H](NC(=O)[C@H](C(C)C)NC(=O)[C@H](Cc4ccc(O)cc4)NC(=O)CNC(=O)[C@H](CCC(=O)O)NC(=O)[C@H](CSSC[C@H](NC(=O)[C@H](CC(=O)O)NC(=O)CN)C(=O)N[C@@H](CC(C)C)C(=O)NCC(=O)N[C@@H](Cc4c[nH]c5ccccc45)C(=O)N[C@@H](Cc4ccccc4)C(=O)N[C@@H](CO)C(=O)NCC(=O)N3)NC2=O)C(=O)N[C@@H](Cc2c[nH]cn2)C(=O)N[C@@H](Cc2c[nH]c3ccccc23)C(=O)N[C@@H](CCCCN)C(=O)N[C@@H](Cc2ccc(O)cc2)C(=O)N2CCC[C@H]2C(=O)N[C@@H](Cc2c[nH]c3ccccc23)C(=O)N1)C(=O)O` [D32A], the IC50 on hNaV1.3 stood at 221 nM; on hNaV1.7, 118 nM; on hNaV1.2, 110 nM.
With `CC(C)C[C@H](NC(=O)[C@H](CC(=O)O)NC(=O)[C@H](Cc1ccc(O)cc1)NC(=O)[C@H](CCCNC(=N)N)NC(=O)[C@@H]1CSSC[C@@H]2NC(=O)[C@H](CCCCN)NC(=O)[C@H](CC(N)=O)NC(=O)[C@H](CC(N)=O)NC(=O)[C@H](CC(N)=O)NC(=O)[C@@H]3CCCN3C(=O)[C@H](CC(=O)O)NC(=O)[C@@H]3CSSC[C@H](NC(=O)[C@H](C(C)C)NC(=O)[C@H](Cc4ccc(O)cc4)NC(=O)CNC(=O)[C@H](CCC(=O)O)NC(=O)[C@H](CSSC[C@H](NC(=O)[C@H](CC(=O)O)NC(=O)CN)C(=O)N[C@@H](CC(C)C)C(=O)NCC(=O)N[C@@H](Cc4c[nH]c5ccccc45)C(=O)N[C@@H](Cc4ccccc4)C(=O)N[C@@H](CO)C(=O)NCC(=O)N3)NC2=O)C(=O)N[C@@H](CO)C(=O)N[C@@H](Cc2c[nH]c3ccccc23)C(=O)N[C@@H](CCCCN)C(=O)N[C@@H](Cc2ccc(O)cc2)C(=O)N2CCC[C@H]2C(=O)N[C@@H](Cc2c[nH]c3ccccc23)C(=O)N1)C(=O)O` [H23S], the IC50 on hNaV1.3 stood at 679 nM; at hNaV1.7 it was 198 nM; on hNaV1.2 it was 156 nM.
Regarding `CC(C)C[C@H](NC(=O)[C@H](CC(=O)O)NC(=O)[C@H](Cc1ccc(O)cc1)NC(=O)[C@H](CCCNC(=N)N)NC(=O)[C@@H]1CSSC[C@@H]2NC(=O)[C@H](CCCCN)NC(=O)[C@H](CC(N)=O)NC(=O)[C@H](CC(N)=O)NC(=O)[C@H](CC(N)=O)NC(=O)[C@H](C)NC(=O)[C@H](CC(=O)O)NC(=O)[C@@H]3CSSC[C@H](NC(=O)[C@H](C(C)C)NC(=O)[C@H](Cc4ccc(O)cc4)NC(=O)CNC(=O)[C@H](CCC(=O)O)NC(=O)[C@H](CSSC[C@H](NC(=O)[C@H](CC(=O)O)NC(=O)CN)C(=O)N[C@@H](CC(C)C)C(=O)NCC(=O)N[C@@H](Cc4c[nH]c5ccccc45)C(=O)N[C@@H](Cc4ccccc4)C(=O)N[C@@H](CO)C(=O)NCC(=O)N3)NC2=O)C(=O)N[C@@H](Cc2c[nH]cn2)C(=O)N[C@@H](Cc2c[nH]c3ccccc23)C(=O)N[C@@H](CCCCN)C(=O)N[C@@H](Cc2ccc(O)cc2)C(=O)N2CCC[C@H]2C(=O)N[C@@H](Cc2c[nH]c3ccccc23)C(=O)N1)C(=O)O` [P11A], the IC50 turned out to be 600 nM on hNaV1.3, 120 nM at hNaV1.7 and 208 nM at hNaV1.2.
For `CC(C)C[C@H](NC(=O)[C@H](CC(=O)O)NC(=O)[C@H](Cc1ccc(O)cc1)NC(=O)[C@H](CCCNC(=N)N)NC(=O)[C@@H]1CSSC[C@@H]2NC(=O)[C@H](CCCCN)NC(=O)[C@H](CC(N)=O)NC(=O)[C@H](CC(N)=O)NC(=O)[C@H](CC(N)=O)NC(=O)[C@@H]3CCCN3C(=O)[C@H](CC(=O)O)NC(=O)[C@@H]3CSSC[C@H](NC(=O)[C@H](C(C)C)NC(=O)[C@H](Cc4ccc(O)cc4)NC(=O)CNC(=O)[C@H](CCC(=O)O)NC(=O)[C@H](CSSC[C@H](NC(=O)[C@H](CC(=O)O)NC(=O)CN)C(=O)N[C@@H](CC(C)C)C(=O)NCC(=O)N[C@@H](Cc4c[nH]c5ccccc45)C(=O)N[C@@H](Cc4ccccc4)C(=O)N[C@@H](CO)C(=O)NCC(=O)N3)NC2=O)C(=O)N[C@@H](Cc2c[nH]cn2)C(=O)N[C@@H](Cc2c[nH]c3ccccc23)C(=O)N[C@@H](CCCCN)C(=O)N[C@@H](Cc2ccc(O)cc2)C(=O)N[C@@H](C)C(=O)N[C@@H](Cc2c[nH]c3ccccc23)C(=O)N1)C(=O)O` [P27A], the results for the IC50 at hNaV1.3, on hNaV1.7 and on hNaV1.2 were above 3000 nM, 166 nM and 270 nM, respectively.
Regarding `CC(C)C[C@H](NC(=O)[C@H](CC(=O)O)NC(=O)[C@H](Cc1ccc(O)cc1)NC(=O)[C@H](CCCNC(=N)N)NC(=O)[C@@H]1CSSC[C@@H]2NC(=O)[C@H](CCCCN)NC(=O)[C@H](CC(N)=O)NC(=O)[C@H](CC(N)=O)NC(=O)[C@H](CC(N)=O)NC(=O)[C@@H]3CCCN3C(=O)[C@H](CC(=O)O)NC(=O)[C@@H]3CSSC[C@H](NC(=O)[C@H](C(C)C)NC(=O)[C@H](Cc4ccc(O)cc4)NC(=O)CNC(=O)[C@H](CCC(=O)O)NC(=O)[C@H](CSSC[C@H](NC(=O)[C@H](CC(=O)O)NC(=O)CN)C(=O)N[C@@H](CC(C)C)C(=O)NCC(=O)N[C@@H](Cc4c[nH]c5ccccc45)C(=O)N[C@@H](Cc4ccccc4)C(=O)N[C@@H](CO)C(=O)NCC(=O)N3)NC2=O)C(=O)N[C@@H](Cc2c[nH]cn2)C(=O)N[C@@H](CO)C(=O)N[C@@H](CCCCN)C(=O)N[C@@H](Cc2ccc(O)cc2)C(=O)N2CCC[C@H]2C(=O)N[C@@H](Cc2c[nH]c3ccccc23)C(=O)N1)C(=O)O` [W24S], the IC50 on hNaV1.3 was above 3000 nM; at hNaV1.7, above 3000 nM; on hNaV1.2, 1460 nM.
`CC(C)C[C@H](NC(=O)[C@H](CC(=O)O)NC(=O)[C@H](Cc1ccc(O)cc1)NC(=O)[C@H](CCCNC(=N)N)NC(=O)[C@@H]1CSSC[C@@H]2NC(=O)[C@H](CCCCN)NC(=O)[C@H](CC(N)=O)NC(=O)[C@H](CC(N)=O)NC(=O)[C@H](CC(N)=O)NC(=O)[C@@H]3CCCN3C(=O)[C@H](CC(=O)O)NC(=O)[C@@H]3CSSC[C@H](NC(=O)[C@H](C(C)C)NC(=O)[C@H](Cc4ccc(O)cc4)NC(=O)CNC(=O)[C@H](CCC(=O)O)NC(=O)[C@H](CSSC[C@H](NC(=O)[C@H](CC(=O)O)NC(=O)CN)C(=O)N[C@@H](CC(C)C)C(=O)NCC(=O)N[C@@H](Cc4c[nH]c5ccccc45)C(=O)N[C@@H](Cc4ccccc4)C(=O)N[C@@H](CO)C(=O)NCC(=O)N3)NC2=O)C(=O)N[C@@H](Cc2c[nH]cn2)C(=O)N[C@@H](Cc2c[nH]c3ccccc23)C(=O)N[C@@H](CCCCN)C(=O)N[C@@H](Cc2c[nH]cn2)C(=O)N2CCC[C@H]2C(=O)N[C@@H](Cc2c[nH]c3ccccc23)C(=O)N1)C(=O)O` [Y26H]: the half-maximal inhibitory concentration (IC50) on hNaV1.3 was 484 nM; at hNaV1.7, 244 nM; at hNaV1.2, 369 nM.
